The values that follow come from paper PMC11726150, “Pre‐ADMET studies of 5‐(3′,4′‐dihydroxyphenyl)‐γ‐valerolactone, the bioactive intestinal metabolite of proanthocyanidins” (Archiv Der Pharmazie, 2024).

The target in one data set is T1, CYP3A4 (Homo sapiens, UniProt P08684).
T1 construct: purchased
The data set can be described thus: CYP inhibition assay. It counts as biochemical. The note with it: read-out: half‐maximal inhibitory concentration (IC50). As for the experimental part:
(§1) The inhibitory potential of VL toward the catalytic activity of CYP3A4 and CYP1A2 was investigated through CYP inhibition assays using high‐throughput CYP450 screening kits. Stock solutions of VL (10 mM in DMSO) and specific positive controls for each CYP isoform were serially diluted in methanol and reactions were performed in 96‐well plates according to the supplier's instructions. Briefly, 40 μL (×2.5) of test compound and 50 μL master premix were added to 96‐well plates. Plates were incubated for 10 min at room temperature to allow for sufficient interaction of the test compound and enzyme. Following incubation, 10 μL (×10) of enzyme‐specific substrates were added and plates were vortex‐mixed for 30 s. Further, fluorescence was measured at the specified excitation and emission wavelengths for each substrate as recommended per individual kit protocol. Ketoconazole (0.004, 0.01, 0.03, 0.11, 0.33, and 1 μM) and α‐naphthoflavone (0.004, 0.01, 0.03, 0.11, 0.33, and 1 μM) were used as positive controls for CYP3A4 and CYP1A2, respectively. IC50 values were obtained from concentration‐response curves generated by plotting the percentage of inhibition versus concentration.^[ [46] ^]

The target of another data set is T2, CYP1A2 (Homo sapiens, UniProt P05177).
T2 construct: purchased
T2 sequence (P05177 1-516): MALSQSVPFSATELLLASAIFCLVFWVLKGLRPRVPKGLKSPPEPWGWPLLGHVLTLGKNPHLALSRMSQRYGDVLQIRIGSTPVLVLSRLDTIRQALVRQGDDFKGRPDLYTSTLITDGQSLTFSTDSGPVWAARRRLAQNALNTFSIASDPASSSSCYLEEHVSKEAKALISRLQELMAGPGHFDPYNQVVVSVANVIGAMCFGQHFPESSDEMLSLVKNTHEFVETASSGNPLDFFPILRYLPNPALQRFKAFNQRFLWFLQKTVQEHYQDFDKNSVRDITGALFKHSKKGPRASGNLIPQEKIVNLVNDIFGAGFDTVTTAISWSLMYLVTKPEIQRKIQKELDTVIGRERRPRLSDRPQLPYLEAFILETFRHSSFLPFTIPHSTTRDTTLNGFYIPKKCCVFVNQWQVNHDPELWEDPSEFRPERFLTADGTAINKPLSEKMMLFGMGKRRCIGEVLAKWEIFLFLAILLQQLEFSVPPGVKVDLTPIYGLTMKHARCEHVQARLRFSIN
Put plainly: CYP inhibition assay. Format: biochemical. As for the experimental part:
as §1

T1 sequence (P08684 whole entry): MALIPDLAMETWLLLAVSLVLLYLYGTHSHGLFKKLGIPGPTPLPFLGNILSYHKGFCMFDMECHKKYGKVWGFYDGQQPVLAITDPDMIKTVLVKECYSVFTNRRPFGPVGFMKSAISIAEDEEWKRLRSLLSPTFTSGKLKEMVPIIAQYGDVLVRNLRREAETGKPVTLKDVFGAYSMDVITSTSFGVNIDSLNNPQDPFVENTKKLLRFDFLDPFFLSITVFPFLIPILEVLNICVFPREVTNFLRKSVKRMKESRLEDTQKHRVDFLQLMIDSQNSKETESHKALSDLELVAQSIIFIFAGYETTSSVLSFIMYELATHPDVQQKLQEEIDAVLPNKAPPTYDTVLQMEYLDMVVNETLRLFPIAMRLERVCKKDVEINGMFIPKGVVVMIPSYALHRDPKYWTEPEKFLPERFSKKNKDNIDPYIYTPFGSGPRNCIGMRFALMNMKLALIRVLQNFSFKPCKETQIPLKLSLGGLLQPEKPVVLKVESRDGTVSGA

For the molecule `O=C1CCC(Cc2ccc(O)c(O)c2)O1` (centres unmarked) [VL, 5‐(3′,4′‐dihydroxyphenyl)‐γ‐valerolactone], the IC50 on CYP3A4 was greater than 25 µM. Moreover, at CYP1A2, the “inhibition of CYP1A2” value is listed as “no inhibition effect”.
